The values below are quoted from earlier work in PMC6270655, “Mixed Antimony(V) Complexes with Different Sugars to Modulate the Oral Bioavailability of Pentavalent Antimonial Drugs” (Molecules, 2014).

On the set-up of the series: method as in PMID 22573856.

Consider `CCCCCCCCCCCCCCCCOP(=O)([O-])OCC[N+](C)(C)C` [miltefosine, hexadecylphosphocholine], for which the half-life is ~ 150 h.
